For the first experiment, the system named is LDH. The experiment in a line: LDH activity in mice liver lysates, rate of conversion of glyoxylate to oxalate (FIG. 2). In kind it is in vivo. Conditions: 5-10 mg/kg, oral daily dose for 5 days; liver harvested two hours after last dose; wild type and AGXT null mice. The procedure:
FIG. 2. LDH activity as measured by the rate of conversion of glyoxylate (G) to oxalate (O) in mice livers. Wild type mice, closed circles; AGXT null mice; open squares. […] Liver was harvested from animals two hours after delivery of the last drug dose. Enzyme assays were performed with liver lysates in 0.1M Glycine-Sodium hydroxide buffer, pH 9.6, 20 mM glyoxylate, 3.25 mM NAD+, and the rate of increase in absorbance at 340 nm monitored at room temperature
`Cc1ccc(C#Cc2cccc(-c3nn(-c4nc(C(=O)O)co4)c(CC4CC4)c3Cc3ccc(S(N)(=O)=O)c(F)c3)c2)s1` [Compound 247, 2-(5-(cyclopropylmethyl)-4-(3-fluoro-4-sulfamoylbenzyl)-3-(3-((5-methylthiophen-2-yl)ethynyl)phenyl)-1H-pyrazol-1-yl)oxazole-4-carboxylic acid]: the “suppression of oxalate production in mice liver (LDH activity, glyoxylate to oxalate)” value is recorded as “Maximal suppression of oxalate production”.

A further experiment addresses Human LDHA (Homo sapiens (Human), UniProt P00338). The experiment in a line: human LDHA primary biochemical assay (Example 1). Conditions: biochemical LDHA inhibitory activity, assay of Example 1. The source says:
This example describes a human LDHA primary biochemical assay employed in the characterization of a compound of Formula I in an embodiment of the dislcosure.
Test compounds were placed in a Greiner Bio-One (Monroe, N.C.) 1536-well black solid bottom assay plate. 200 millimolar (mM) Tris HCl, pH 7.4, 100 micromolar (μM) EDTA and 0.01% TWEEN-20™, final concentration, was used as the assay buffer. The LDHA reagent was 2 nanomolar (nM) Human LDHA (Meridian Life Science, Inc., Memphis, Tenn.), final concentration, in assay buffer. The substrate reagent was 0.06 mM NADH and 0.2 mM sodium pyruvate, final concentration, in assay buffer. The resazurin/diaphorase coupling reagent was 0.037 mM resazurin and 0.133 milligrams per milliliter (mg/mL) diaphorase, final concentration, in assay buffer. The inhibition of LDHA activity was measured by fluorescence emission. […]
The compound `NS(=O)(=O)c1ccc(Cc2c(-c3cccc(-c4ccc(O)c(F)c4)c3)nn(-c3nc(C(=O)O)cs3)c2CC2CC2)cc1F` [Compound 229, 2-(5-(cyclopropylmethyl)-3-(3′-fluoro-4′-hydroxy-[1,1′-biphenyl]-3-yl)-4-(3-fluoro-4-sulfamoylbenzyl)-1H-pyrazol-1-yl)thiazole-4-carboxylic acid] gave an IC50 of less than 100 nM.
Take `Cc1ccc(C#Cc2cccc(-c3nn(-c4nc(C(=O)O)cs4)c(CC4CC4)c3Cc3ccc(S(N)(=O)=O)c(F)c3)n2)s1` [Compound 231, 2-(5-(cyclopropylmethyl)-4-(3-fluoro-4-sulfamoylbenzyl)-3-(6-((5-methylthiophen-2-yl)ethynyl)pyridin-2-yl)-1H-pyrazol-1-yl)thiazole-4-carboxylic acid]: the IC50 is less than 100 nM.
Same read-out and setting: to `Cc1ccc(C#Cc2cccc(-c3nn(-c4nc(C(=O)O)cs4)c(CCC4CC4)c3Cc3ccc(S(N)(=O)=O)c(F)c3)c2)o1` [Compound 232, 2-(5-(2-cyclopropylethyl)-4-(3-fluoro-4-sulfamoylbenzyl)-3-(3-((5-methylfuran-2-yl)ethynyl)phenyl)-1H-pyrazol-1-yl)thiazole-4-carboxylic acid] belongs less than 100 nM; to `Cc1cnc(C#Cc2cccc(-c3nn(-c4nc(C(=O)O)cs4)c(CCC4CC4)c3Cc3ccc(S(N)(=O)=O)c(F)c3)c2)s1` [Compound 234, 2-(5-(2-cyclopropylethyl)-4-(3-fluoro-4-sulfamoylbenzyl)-3-(3-((5-methylthiazol-2-yl)ethynyl)phenyl)-1H-pyrazol-1-yl)thiazole-4-carboxylic acid], less than 100 nM; to `Cc1ncc(C#Cc2cccc(-c3nn(-c4nc(C(=O)O)cs4)c(CCC4CC4)c3Cc3ccc(S(N)(=O)=O)c(F)c3)c2)s1` [Compound 235, 2-(5-(2-cyclopropylethyl)-4-(3-fluoro-4-sulfamoylbenzyl)-3-(3-((2-methylthiazol-5-yl)ethynyl)phenyl)-1H-pyrazol-1-yl)thiazole-4-carboxylic acid], less than 100 nM.
`Cc1nc(C#Cc2cccc(-c3nn(-c4nc(C(=O)O)cs4)c(CC4CC4)c3Cc3ccc(S(N)(=O)=O)c(F)c3)c2)cs1` [Compound 236, 2-(5-(cyclopropylmethyl)-4-(3-fluoro-4-sulfamoylbenzyl)-3-(3-((2-methylthiazol-4-yl)ethynyl)phenyl)-1H-pyrazol-1-yl)thiazole-4-carboxylic acid] came in with an IC50 of less than 100 nM.
Still for that read-out and setting: the same measure for `Cc1cc(C#Cc2cccc(-c3nn(-c4nc(C(=O)O)cs4)c(CC4CC4)c3Cc3ccc(S(N)(=O)=O)c(F)c3)c2)cs1` [Compound 240, 2-(5-(cyclopropylmethyl)-4-(3-fluoro-4-sulfamoylbenzyl)-3-(3-((5-methylthiophen-3-yl)ethynyl)phenyl)-1H-pyrazol-1-yl)thiazole-4-carboxylic acid]: less than 100 nM; for `Cc1ccc(C(=O)Cc2cccc(-c3nn(-c4nc(C(=O)O)cs4)c(CC4CC4)c3Cc3ccc(S(N)(=O)=O)c(F)c3)c2)s1` [Compound 242, 2-(5-(cyclopropylmethyl)-4-(3-fluoro-4-sulfamoylbenzyl)-3-(3-(2-(5-methylthiophen-2-yl)-2-oxoethyl)phenyl)-1H-pyrazol-1-yl)thiazole-4-carboxylic acid]: less than 100 nM; for `Cc1nc(C#Cc2cccc(-c3nn(-c4nc(C(=O)O)cs4)c(CCC4CC4)c3Cc3ccc(S(N)(=O)=O)c(F)c3)c2)cs1` [Compound 243, 2-(5-(2-cyclopropylethyl)-4-(3-fluoro-4-sulfamoylbenzyl)-3-(3-((2-methylthiazol-4-yl)ethynyl)phenyl)-1H-pyrazol-1-yl)thiazole-4-carboxylic acid]: less than 100 nM.
For `Cc1ccc(C#Cc2cccc(-c3nn(-c4nc(C(=O)O)co4)c(CC4CC4)c3Cc3ccc(S(N)(=O)=O)c(F)c3)c2)s1` [Compound 247, 2-(5-(cyclopropylmethyl)-4-(3-fluoro-4-sulfamoylbenzyl)-3-(3-((5-methylthiophen-2-yl)ethynyl)phenyl)-1H-pyrazol-1-yl)oxazole-4-carboxylic acid], the IC50 was less than 100 nM.

As a reminder, the IC50 is the concentration that gives 50% inhibition. A low value points to inhibition by little substance.

These data come from patent US11752138B2 (VANDERBILT UNIVERSITY, priority 2020, dated 2023).
